Calls of active or inactive are those of the source.
Legend:
[1] = molecular target: T1, Heat shock factor protein 1 (Mus musculus, UniProt P38532); experiment: enhancement of HSF1-driven luciferase signal – cell-based, NIH3T3, luminescence, dose retest, confirmation (AID 435004); type: functional;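 note: stress induced by proteasome inhibitor MG132 added 30 min after compound; luciferase reporter driven by HSF1 response element in NIH3T3 cells; actives raise luminescence as potentiators of the MG132 stress response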
T1 sequence (P38532 whole entry): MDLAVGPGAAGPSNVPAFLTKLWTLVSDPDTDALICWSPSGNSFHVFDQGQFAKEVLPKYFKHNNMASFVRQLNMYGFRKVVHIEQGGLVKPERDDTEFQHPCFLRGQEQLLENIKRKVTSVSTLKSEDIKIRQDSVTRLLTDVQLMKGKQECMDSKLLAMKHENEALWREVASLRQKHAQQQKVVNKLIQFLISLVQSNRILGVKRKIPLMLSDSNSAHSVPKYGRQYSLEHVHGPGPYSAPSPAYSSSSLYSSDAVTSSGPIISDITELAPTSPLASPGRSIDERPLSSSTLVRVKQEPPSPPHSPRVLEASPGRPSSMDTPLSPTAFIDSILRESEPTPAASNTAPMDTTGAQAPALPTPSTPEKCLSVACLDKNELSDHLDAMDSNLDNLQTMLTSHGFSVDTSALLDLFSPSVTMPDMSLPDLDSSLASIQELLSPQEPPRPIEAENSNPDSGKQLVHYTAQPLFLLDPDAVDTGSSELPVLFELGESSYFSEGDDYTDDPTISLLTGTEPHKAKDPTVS

Cytochrome P450 3A4 = Cytochrome P450 3A4 (Homo sapiens, UniProt P08684);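 note: CYP3A4 tested as one member of a cytochrome P450 panel screen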
Cytochrome P450 2C19 = Cytochrome P450 2C19 (Homo sapiens, UniProt P33261); experiment: Cytochrome panel assay with activity outcomes. Panel member name: p450-cyp2c19 Compounds with AC50 equal or less than 10 uM are considered active; type: functional; details: read-out: AC50
Cytochrome P450 2C9 = Cytochrome P450 2C9 (Homo sapiens, UniProt P11712)
Cytochrome P450 1A2 = molecular target: T2, Cytochrome P450 1A2 (Homo sapiens, UniProt P05177);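 note: PubChem cytochrome P450 panel assay, CYP1A2 panel member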
T2 sequence (P05177 whole entry): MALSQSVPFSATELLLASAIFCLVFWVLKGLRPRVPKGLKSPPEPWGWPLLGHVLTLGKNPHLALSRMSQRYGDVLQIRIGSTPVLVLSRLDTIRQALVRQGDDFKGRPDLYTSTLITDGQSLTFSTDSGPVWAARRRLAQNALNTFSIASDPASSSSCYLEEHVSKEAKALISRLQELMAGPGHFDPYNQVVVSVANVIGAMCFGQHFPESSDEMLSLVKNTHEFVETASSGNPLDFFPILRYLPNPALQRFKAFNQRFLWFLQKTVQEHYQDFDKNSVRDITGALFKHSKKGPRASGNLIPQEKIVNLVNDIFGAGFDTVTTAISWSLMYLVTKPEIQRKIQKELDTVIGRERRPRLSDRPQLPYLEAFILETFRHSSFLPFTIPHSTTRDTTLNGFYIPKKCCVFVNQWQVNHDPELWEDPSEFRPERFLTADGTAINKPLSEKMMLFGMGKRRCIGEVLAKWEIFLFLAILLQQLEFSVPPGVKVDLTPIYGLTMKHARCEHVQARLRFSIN

[2] = test system: Streptococcus sp. 'group A'; experiment: Streptococcus pyogenes SK(-)GAS viability under kanamycin – luminescence, BacTiterGlo, confirmation, counter-screen for streptokinase expression inhibitor project, dose response (AID 1900); type: functional, organism-based
Streptokinase A = molecular target: T3, Streptokinase A (Streptococcus pyogenes serotype M1, UniProt P10520); experiment: viability-normalized secreted streptokinase activity reduction – plasminogen activation absorbance, OD405, dose response (AID 1914); type: functional, Streptococcus pyogenes M1 GAS;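 note: secreted streptokinase activity via plasminogen activation per viability signal from cell pellet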
T3 sequence (P10520 whole entry): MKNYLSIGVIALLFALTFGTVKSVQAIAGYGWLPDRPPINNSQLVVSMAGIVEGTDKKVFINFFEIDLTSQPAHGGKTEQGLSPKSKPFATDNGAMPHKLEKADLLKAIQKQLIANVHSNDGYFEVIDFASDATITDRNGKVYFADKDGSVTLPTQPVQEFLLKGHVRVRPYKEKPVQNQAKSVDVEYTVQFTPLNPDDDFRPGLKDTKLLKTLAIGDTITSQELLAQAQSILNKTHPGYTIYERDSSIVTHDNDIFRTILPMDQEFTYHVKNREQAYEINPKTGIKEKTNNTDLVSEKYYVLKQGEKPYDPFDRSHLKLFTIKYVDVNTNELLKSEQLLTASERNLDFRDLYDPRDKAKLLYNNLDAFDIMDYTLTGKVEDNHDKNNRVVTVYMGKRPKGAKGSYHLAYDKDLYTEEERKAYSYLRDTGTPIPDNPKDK

Streptococcus = experiment: GAS UMAA2166 growth inhibition – luminescence, BacTiterGlo, counter-screen for streptokinase expression inhibitor project, dose response (AID 1915); type: functional, organism-based;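 note: potency for reduction of bacterial viability or growth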

Chain of Cytochrome P450 2C9 (P11712 whole entry): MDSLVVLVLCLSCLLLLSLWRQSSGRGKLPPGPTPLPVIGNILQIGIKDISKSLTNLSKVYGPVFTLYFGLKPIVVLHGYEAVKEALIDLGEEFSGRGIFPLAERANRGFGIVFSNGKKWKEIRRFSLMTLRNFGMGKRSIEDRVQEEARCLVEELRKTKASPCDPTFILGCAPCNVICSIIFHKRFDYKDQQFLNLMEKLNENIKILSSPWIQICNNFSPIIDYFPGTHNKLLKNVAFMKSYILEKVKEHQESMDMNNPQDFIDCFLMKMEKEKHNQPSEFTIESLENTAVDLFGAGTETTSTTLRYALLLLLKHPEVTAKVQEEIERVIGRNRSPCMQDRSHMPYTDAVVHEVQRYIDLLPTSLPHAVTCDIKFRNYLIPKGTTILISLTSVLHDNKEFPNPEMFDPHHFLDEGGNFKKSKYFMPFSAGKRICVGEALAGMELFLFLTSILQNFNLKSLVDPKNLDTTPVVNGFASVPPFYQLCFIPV
Chain of Cytochrome P450 3A4 (P08684 whole entry): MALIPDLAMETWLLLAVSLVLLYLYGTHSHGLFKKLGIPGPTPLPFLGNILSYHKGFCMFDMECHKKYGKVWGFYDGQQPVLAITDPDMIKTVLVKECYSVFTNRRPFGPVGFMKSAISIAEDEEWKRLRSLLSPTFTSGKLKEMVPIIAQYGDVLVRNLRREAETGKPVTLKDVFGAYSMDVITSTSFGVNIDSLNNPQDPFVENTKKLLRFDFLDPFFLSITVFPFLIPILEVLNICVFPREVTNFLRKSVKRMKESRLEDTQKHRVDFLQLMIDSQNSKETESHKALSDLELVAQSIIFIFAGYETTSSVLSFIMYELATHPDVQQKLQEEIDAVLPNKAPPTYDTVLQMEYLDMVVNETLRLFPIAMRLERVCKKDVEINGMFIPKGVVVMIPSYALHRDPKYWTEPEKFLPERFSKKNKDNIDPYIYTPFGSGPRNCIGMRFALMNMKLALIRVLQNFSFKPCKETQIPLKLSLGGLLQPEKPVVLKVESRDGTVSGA
Chain of Cytochrome P450 2C19 (P33261 whole entry): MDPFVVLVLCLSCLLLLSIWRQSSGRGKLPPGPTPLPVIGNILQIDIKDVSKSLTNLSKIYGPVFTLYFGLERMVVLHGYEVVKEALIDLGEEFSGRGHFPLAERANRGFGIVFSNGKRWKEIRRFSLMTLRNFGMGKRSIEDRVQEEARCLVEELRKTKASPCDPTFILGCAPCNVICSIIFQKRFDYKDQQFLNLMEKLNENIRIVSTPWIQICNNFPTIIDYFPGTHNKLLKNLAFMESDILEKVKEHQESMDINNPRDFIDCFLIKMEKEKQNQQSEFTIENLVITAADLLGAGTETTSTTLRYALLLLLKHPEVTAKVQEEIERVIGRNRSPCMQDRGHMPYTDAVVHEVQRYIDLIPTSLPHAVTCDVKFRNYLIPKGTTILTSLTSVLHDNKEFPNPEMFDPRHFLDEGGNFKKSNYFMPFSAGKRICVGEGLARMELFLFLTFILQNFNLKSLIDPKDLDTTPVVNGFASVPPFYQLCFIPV

Row | Compound | EC50 [1] | AC50 (Cytochrome P450 3A4) | also measured
1 | Cc1nn(-c2ccccc2)c2sc(C(=O)N(Cc3ccco3)C(C)C(=O)NC(C)(C)C)cc12 (stereo not drawn) | > 260 µM (inactive) |  | 
2 | CN(C)c1ccc(CNC(=O)c2ccc(CNc3c(N4CCCCC4)c(=O)c3=O)cc2)cc1 | > 260 µM (inactive) |  | 
3 | COc1ccc(Nc2nnc(-c3ccc(N4CCOCC4)c([N+](=O)[O-])c3)c3ccccc23)cc1 |  | 7.94 µM (inconclusive) | AC50 (Cytochrome P450 2C19): 15.8 µM (inconclusive)
4 | CCOC(=O)C1CCN(C(=O)c2ccc3c(Cl)c4c(nc3c2)CCCC4)CC1 | 15.8 µM (active) |  | 
5 | COc1ccc(S(=O)(=O)Nc2ccccc2C(F)(F)F)cc1 | > 260 µM (inactive) |  | 
6 | Cc1ccc(C(c2nnnn2CC2CCCO2)N2CCN(C(=O)c3ccco3)CC2)cc1 (stereo not drawn) |  |  | AC50 (Cytochrome P450 2C9): 25.1 µM (inconclusive)
7 | Oc1ccc([C@@H]2CNCc3sccc32)cc1O |  | 15.8 µM (inconclusive) | 
8 | O=C(Nc1cccn2ncnc12)C(F)(F)F | > 260 µM (inactive) |  | 
9 | Cc1ccccc1N(C(=O)Cc1cccs1)C(C(=O)NCC1CCCO1)c1cccnc1 (stereo not drawn) |  | 1 µM (inconclusive) | AC50 (Cytochrome P450 2C9): 22.4 µM (inconclusive); AC50 (Cytochrome P450 2C19): 28.2 µM (inconclusive)
10 | CCCCN1C(=O)NC(=O)/C(=C\NCCN2CCCCC2)C1=O |  | 20 µM (inconclusive) | 
11 | O=c1c(-c2ccc(F)c(F)c2)nc2cncnc2n1C1CC1 |  | 12.6 µM (inconclusive) | 
12 | COc1ccc2c(c1)c(C(=O)CN1CCCCC1)c(C)n2C | > 260 µM (inactive) |  | 
13 | O=C(c1[nH]o[n+](=O)c1C(=O)c1csc2ccccc12)c1csc2ccccc12 |  | 3.16 µM (inconclusive) | 
14 | COc1ccc(NS(=O)(=O)c2ccc(NC(=O)c3cnn4c(C(F)F)cc(-c5ccc(C)cc5)nc34)cc2)cc1 |  |  | AC50 (Cytochrome P450 2C9): 3.55 µM (inconclusive); AC50 (Cytochrome P450 2C19): 2.24 µM (inconclusive); AC50 (Cytochrome P450 1A2): 0.891 µM (inconclusive)
15 | Cc1nc2ncnn2c(C)c1CCC(=O)NCc1ccccc1 |  | 17.8 µM (inconclusive) | 
16 | COc1cccc(-c2cc(C(F)(F)F)nc(N3CCCCC3)n2)c1 |  | 20 µM (inconclusive) | EC50 [2]: 5.13 µM (active); EC50 (Streptokinase A): 4.92 µM (active); EC50 (Streptococcus): 19 µM (active); AC50 (Cytochrome P450 2C9): 0.355 µM (inconclusive)
17 | Cc1cc(C)c(S(=O)(=O)N2CCCC(C(=O)NCCC3=CCCCC3)C2)c(C)c1 (stereo not drawn) | > 260 µM (inactive) |  | 
18 | CN1CC[C@@]2(CCCN(C(=O)c3ccncc3)C2)C1 |  | 31.6 µM (inconclusive) | 
19 | CC1(C)Oc2cc(N)c([N+](=O)[O-])cc2O1 |  |  | AC50 (Cytochrome P450 2C9): 35.5 µM (inconclusive)
